The values below come from patent US11613531B2, “Inhibitors of RHO associated coiled-coil containing protein kinase” (Kadmon Corporation, LLC, priority 2017, dated 2023).

Like-named read-outs stand apart in the source and are kept apart here.

Experiment [1] concerns the target Recombinant ROCK1 (amino acids 1-535) (Homo sapiens (Human), UniProt Q13464). Nature of the experiment: Z′-Lyte kinase assay, ROCK1. Format: biochemical. Put shortly: (§1)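 Recombinant human ROCK1 (aa 1-535) or ROCK2 (aa 1-552) activity read by Z′-Lyte kinase assay. Percent inhibition at 1 μM compound was normalized to DMSO control; IC50 from 9-point 2-fold serial dilutions by nonlinear regression.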

Experiment [2] deals with Recombinant ROCK2 (amino acids 1-552) (Homo sapiens (Human), UniProt O75116). As to the kind of experiment: Z′-Lyte kinase assay, ROCK2. Format: biochemical. The conditions noted are these: for inhibition at 0.5 µM: 0.5 μM compound. A digest of the protocol: as §1
The subject of experiment [3] is ppMlc (T18/S19) levels in A7R5 cells. As to the kind of experiment: A7R5 in-cell ELISA (pMLC). Format: cell-based, Rat. The conditions noted are these: Rattus norvegicus, A7R5, A7R5 cells; for inhibition at 1 µM: 1 μM compound, read-out: pMLC % inh A7R5 @ [conc]. Put shortly: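 A7R5 rat aortic smooth muscle cells seeded 24 h, then treated 90 min with a 9-point 2-fold compound dilution series. Fixed cells probed for ppMlc (T18/S19) by colorimetric in-cell ELISA; cellular IC50 from nonlinear regression curve fit.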
(In general: ELISA stands for enzyme-linked immunosorbent assay.)

Experiment [4] concerns human ACTA2 gene promoter luciferase reporter in NIH3T3 cells. As to the kind of experiment: NIH3T3 Acta2-promoter driven-luciferase assay. Format: cell-based. The conditions noted are these: NIH3T3, 24 h, read-out: NIH3T3 Acta2-luc, IC50. Here is the method:
NIH3T3 Cells Acta2-Promoter Driven-Luciferase Assay.
A NIH3T3 cell line stably expressing a luciferase reporter driven by the human ACTA2 gene promoter (−1000-1 bp) was established (NIH3T3-Acta2-luciferase). The cells were plated to confluence and treated with the test compounds plus TGFβ1 for 24 hr. Cells were then lysed and luciferase activity was measured using the LightSwitch luciferase kit from Active Motif.
In vitro activities for the compounds were measured with Z′-lyte kinase kit (ThermoFisher Scientific). The percent inhibition rate was calculated by normalizing the kinase activity value obtained with 1 μM compound treatment against DMSO control value and then applied to the formula, [1-(compound/DMSO)]×100%. IC50s were calculated using the nonlinear regression curve fit function of the GraphPad Prism software with kinase activities data measured with 9 points 2-fold serial dilution of compounds treatment. In cell pMLC IC50s were calculated with data obtained from A7R5 cell experiments. A7R5 cells were treated with 9 points 2-fold serial dilution of compounds and ppMlc (T18/S19) levels were determined to calculate cellular IC50 values of the compounds using the nonlinear regression curve fit function of the GraphPad Prism software. NIH3T3 cells stably expressing ACTA2-promoter-driven-luciferase were applied to measure ROCK compounds functional IC50s in cells. Cells were plated in 96 well plates to confluence and treated with 9 points serial dilution of compounds in combination with TGFβ1 for 24 hr. Luciferase activities were measured and compound's IC50s were calculated using the nonlinear regression curve fit function of the GraphPad Prism software.
ROCK inhibitors can be effectively rank ordered by ACTA2-promoter-driven-luciferase reporter cell assay. NIH3T3 cells stably expressing ACTA2-promoter-driven-luciferase were plated in 96 well plates to confluence and treated with 9 points serial dilution of compounds in combination with TGFβ1 for 24 hr. Luciferase activities were measured and compound's IC50s were calculated. By this assay multiple compounds of the invention gave IC50s under 200 nM.

Setting [5] is: 9 points 2-fold serial dilution.
[6] abbreviates: read-out: ROCK2 % inh. @ [conc].

Sequence of Recombinant ROCK1 (amino acids 1-535) (Q13464 1-535): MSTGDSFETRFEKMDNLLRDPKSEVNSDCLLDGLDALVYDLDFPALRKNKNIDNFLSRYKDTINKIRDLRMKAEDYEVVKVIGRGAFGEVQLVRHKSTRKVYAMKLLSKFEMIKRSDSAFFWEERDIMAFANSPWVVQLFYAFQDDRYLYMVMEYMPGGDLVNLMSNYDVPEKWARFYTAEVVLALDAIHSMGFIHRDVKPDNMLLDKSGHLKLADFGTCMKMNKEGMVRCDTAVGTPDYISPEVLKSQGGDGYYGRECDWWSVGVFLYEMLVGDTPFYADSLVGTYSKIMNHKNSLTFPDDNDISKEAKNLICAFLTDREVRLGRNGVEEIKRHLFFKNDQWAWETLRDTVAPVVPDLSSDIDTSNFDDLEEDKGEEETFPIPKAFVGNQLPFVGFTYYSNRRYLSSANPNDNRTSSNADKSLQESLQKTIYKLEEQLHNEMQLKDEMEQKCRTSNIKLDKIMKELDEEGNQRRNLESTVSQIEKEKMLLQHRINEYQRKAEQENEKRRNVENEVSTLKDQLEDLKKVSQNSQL
Sequence of Recombinant ROCK2 (amino acids 1-552) (O75116 1-552): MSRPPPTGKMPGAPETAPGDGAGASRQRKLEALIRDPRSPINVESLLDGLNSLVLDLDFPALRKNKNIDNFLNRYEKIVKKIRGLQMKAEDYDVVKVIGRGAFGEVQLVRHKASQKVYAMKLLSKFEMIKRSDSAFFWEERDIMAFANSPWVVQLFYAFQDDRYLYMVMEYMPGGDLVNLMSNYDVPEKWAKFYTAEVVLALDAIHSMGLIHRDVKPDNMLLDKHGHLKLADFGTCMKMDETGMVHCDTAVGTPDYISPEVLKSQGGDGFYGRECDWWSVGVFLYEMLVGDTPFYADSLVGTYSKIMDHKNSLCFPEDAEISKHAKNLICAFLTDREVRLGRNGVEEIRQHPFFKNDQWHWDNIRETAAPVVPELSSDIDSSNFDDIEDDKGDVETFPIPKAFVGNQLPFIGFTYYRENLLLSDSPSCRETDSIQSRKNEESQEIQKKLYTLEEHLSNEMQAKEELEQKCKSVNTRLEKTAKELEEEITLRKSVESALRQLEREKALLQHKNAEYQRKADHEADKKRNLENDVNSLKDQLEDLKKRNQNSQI

As usually defined, the IC50 is the concentration that inhibits the measured activity by half. Consider `Cc1nc(N2C3CCC2CNC3)nc(Nc2ccc3[nH]ncc3c2)c1C` [Example 29, N-(2-(3,8-diazabicyclo[3.2.1]octan-8-yl)-5,6-dimethylpyrimidin-4-yl)-1H-indazol-5-amine], for which the 50% inhibitory concentration (IC50) in experiment [1] was 42 nM; in experiment [3], 147 nM; in experiment [4] (with TGFβ1, 24 hr), 1090 nM. The inhibition at 1 µM was 102% in experiment [2] (1 μM compound, read-out: ROCK2 % inh. @ [conc]) and 39.1% in experiment [3].
Consider `Cc1cc(Nc2ccc3[nH]ncc3c2)nc(N2CCCNCC2C)n1` (centres unmarked) [Example 117, N-(6-methyl-2-(2-methyl-1,4-diazepan-1-yl)pyrimidin-4-yl)-1H-indazol-5-amine], for which the half-maximal inhibitory concentration (IC50) worked out at 15 nM in experiment [1] (setting [5]); 45 nM in experiment [2] (setting [5]); 168 nM in experiment [3] (ppMlc (T18/S19)); 1270 nM in experiment [4] (NIH3T3 cells, plus TGFβ1 for 24 hr). Further, the inhibition at 1 µM in experiment [3] was 50.6%.
For `Cc1nc(N2C3CNCC2C3)nc(Nc2ccc3[nH]ncc3c2)c1F` [Example 301, N-(2-(3,6-diazabicyclo[3.1.1]heptan-6-yl)-5-fluoro-6-methylpyrimidin-4-yl)-1H-indazol-5-amine], the half-maximal inhibitory concentration (IC50) in experiment [2] was 0.4 nM; in experiment [3] it was 16 nM; in experiment [4] (with TGFβ1, 24 hr), 178 nM. Further, the inhibition at 0.5 µM in experiment [2] (setting [6]) is 100%.
With `FC(F)(F)c1cnc(N2C3CNCC2C3)nc1Nc1ccc2[nH]ncc2c1` [Example 304, N-(2-(3,6-diazabicyclo[3.1.1]heptan-6-yl)-5-(trifluoromethyl)pyrimidin-4-yl)-1H-indazol-5-amine], the IC50 in experiment [2] came out at 17 nM; in experiment [3], 413 nM; in experiment [4] (with TGFβ1, 24 hr), 980 nM.
For `COc1cc2[nH]ncc2cc1Nc1nc(N2C3CCC2CNC3)ncc1Cl` [Example 305, N-(2-(3,8-diazabicyclo[3.2.1]octan-8-yl)-5-chloropyrimidin-4-yl)-6-methoxy-1H-indazol-5-amine], the IC50 in experiment [2] is 160 nM; in experiment [3], 1410 nM; in experiment [4] (with TGFβ1, 24 hr), 3810 nM. Further, in experiment [2] (setting [6]), the inhibition at 0.5 µM came to 83%.
`c1cc2[nH]ncc2cc1Nc1nc(N2C3CNCC2C3)nc2c1COCC2` [Example 307, 2-(3,6-diazabicyclo[3.1.1]heptan-6-yl)-N-(1H-indazol-5-yl)-7,8-dihydro-5H-pyrano[4,3-d]pyrimidin-4-amine]: the IC50 worked out at 2.6 nM in experiment [2]; 977 nM in experiment [3]; 2050 nM in experiment [4] (with TGFβ1, 24 hr).
For `c1cc2[nH]ncc2cc1Nc1nc(N2C3CNCC2C3)ncc1C1CC1` [Example 308, N-(2-(3,6-diazabicyclo[3.1.1]heptan-6-yl)-5-cyclopropylpyrimidin-4-yl)-1H-indazol-5-amine], the IC50 in experiment [2] came out at 15 nM; in experiment [3], 377 nM; in experiment [4] (with TGFβ1, 24 hr), 1240 nM.
Taken in the same sequence, the figures for `c1cc2[nH]ncc2cc1Nc1nc(N2C3CCC2CNC3)ncc1C1CC1` [Example 309, N-(2-(3,8-diazabicyclo[3.2.1]octan-8-yl)-5-cyclopropylpyrimidin-4-yl)-1H-indazol-5-amine] were 117 nM, 917 nM and 3330 nM.
Take `c1cc2[nH]ncc2cc1Nc1nc(N2C3CNCC2C3)nc2c1CNC2` [Example 310, 2-(3,6-diazabicyclo[3.1.1]heptan-6-yl)-N-(1H-indazol-5-yl)-6,7-dihydro-5H-pyrrolo[3,4-d]pyrimidin-4-amine]: the IC50 in experiment [2] was 3.8 nM; in experiment [3], over 5000 nM; in experiment [4] (with TGFβ1, 24 hr), over 5000 nM.
For the compound `Cc1c(Cl)nc(N2C3CCC2CNC3)nc1Nc1ccc2[nH]ncc2c1` [Example 315, N-(2-(3,8-diazabicyclo[3.2.1]octan-8-yl)-6-chloro-5-methylpyrimidin-4-yl)-1H-indazol-5-amine], the concentration for half-maximal inhibition (IC50) was found to be 26 nM in experiment [2]; 168 nM in experiment [3]; 1950 nM in experiment [4] (with TGFβ1, 24 hr).
As for `COc1nc(N2C3CCC2CNC3)nc(Nc2ccc3[nH]ncc3c2)c1F` [Example 319, N-(2-(3,8-diazabicyclo[3.2.1]octan-8-yl)-5-fluoro-6-methoxypyrimidin-4-yl)-1H-indazol-5-amine], the inhibition at 0.5 µM in experiment [1] (0.5 μM compound, read-out: ROCK1 % inh. @ [conc]) was 98%; in experiment [2] (setting [6]), 100%. Moreover, the IC50 in experiment [2] worked out at 1.1 nM; in experiment [4] (with TGFβ1, 24 hr) it was 59 nM.
On to `Fc1cnc(N2CC3CNCC(C2)O3)nc1Nc1ccc2[nH]ncc2c1` [Example 324, N-(2-((1,5)-9-oxa-3,7-diazabicyclo[3.3.1]nonan-3-yl)-5-fluoropyrimidin-4-yl)-1H-indazol-5-amine], for which the IC50 in experiment [2] is 268 nM; in experiment [3], 2080 nM; in experiment [4] (with TGFβ1, 24 hr), 1370 nM. In addition, the inhibition at 0.5 µM in experiment [2] (setting [6]) was 71%.
Turning to `CCN(C)c1cc(Nc2ccc3[nH]ncc3c2)nc(N2C3CCC2CNC3)n1` [Example 332, 2-(3,8-diazabicyclo[3.2.1]octan-8-yl)-N4-ethyl-N6-(1H-indazol-5-yl)-N4-methylpyrimidine-4,6-diamine], the IC50 in experiment [2] came to 1.2 nM; in experiment [3], 18 nM; in experiment [4] (with TGFβ1, 24 hr), 80 nM.
As to `Cc1c(C#N)nc(N2C3CCC2CNC3)nc1Nc1ccc2[nH]ncc2c1` [Example 333, 6-((1H-indazol-5-yl)amino)-2-(3,8-diazabicyclo[3.2.1]octan-8-yl)-5-methylpyrimidine-4-carbonitrile], the IC50 in experiment [2] was 44 nM; in experiment [3], 577 nM; in experiment [4] (with TGFβ1, 24 hr) it was 1600 nM.
On to `CNC1CC2CC1CN2c1ncc(F)c(Nc2ccc3[nH]ncc3c2)n1` (centres unmarked) [Example 334, N-(5-fluoro-2-(5-(methylamino)-2-azabicyclo[2.2.1]heptan-2-yl)pyrimidin-4-yl)-1H-indazol-5-amine], for which the half-inhibitory concentration (IC50) in experiment [2] amounted to 121 nM; in experiment [3] it was 889 nM; in experiment [4] (with TGFβ1, 24 hr), 1650 nM.
In the same order, the values of `FC(F)(F)c1nc(N2C3CCC2CNC3)nc(Nc2ccc3[nH]ncc3c2)c1Cl` [Example 340, N-(2-(3,8-diazabicyclo[3.2.1]octan-8-yl)-5-chloro-6-(trifluoromethyl)pyrimidin-4-yl)-1H-indazol-5-amine] are 20 nM, 362 nM and 894 nM.
`FC(F)(F)c1cc(Nc2ccc3[nH]ncc3c2)nc(N2C3CCC2CNC3)n1` [Example 341, N-(2-(3,8-diazabicyclo[3.2.1]octan-8-yl)-6-(trifluoromethyl)pyrimidin-4-yl)-1H-indazol-5-amine]: the 50% inhibitory concentration (IC50) turned out to be 5.8 nM in experiment [2]; 27 nM in experiment [3]; 58 nM in experiment [4] (with TGFβ1, 24 hr).
As for `CN(C)c1nc(N2C3CCC2CNC3)nc(Nc2ccc3[nH]ncc3c2)c1F` [Example 342], the IC50 came out at 0.1 nM in experiment [2]; 26 nM in experiment [3]; 1950 nM in experiment [4] (with TGFβ1, 24 hr).
Taken in the same sequence, the figures for `Cc1nc(N2C3CCC2CNC3)nc(Nc2ccc3[nH]ncc3c2)c1C#N` [Example 343, 4-((1H-indazol-5-yl)amino)-2-(3,8-diazabicyclo[3.2.1]octan-8-yl)-6-methylpyrimidine-5-carbonitrile] were 5.6 nM, 127 nM and 223 nM.
On to `CN(C)c1nc(N2C3CCC2CNC3)nc(Nc2ccc3[nH]ncc3c2)c1Cl` [Example 344, 2-(3,8-diazabicyclo[3.2.1]octan-8-yl)-5-chloro-N^4-(1H-indazol-5-yl)-N^6,N^6-dimethylpyrimidine-4,6-diamine], for which the IC50 stood at 1.7 nM in experiment [2]; 82 nM in experiment [3]; 192 nM in experiment [4] (with TGFβ1, 24 hr).
